Results from patent US20180243363A1, “NEUROKININ 1 RECEPTOR AGONIST MEDIATED PROTECTION OF THE EYE” (WAYNE STATE UNIVERSITY, priority 2016, published 2018).
Where a SMILES comes first, the peptide text is derived from it. [ ]: non-standard residue; d: D form. NMeL = CN[C@@H](CC(C)C)C(=O)O; Ava = NCCCCC(=O)O

Tests used:
NK1R [1] = molecular target: T1, NK1R (Mus musculus, UniProt P30548); experiment: Phenol red thread tear volume after ocular HSV-1 infection, GR73632 I.P. treatment; format: in vivo, mice; set-up: from tissue; host or cells: living mice (in vivo; eye / tear read-out after systemic dosing); conditions: GR73632 I.P. treated vs control treated group
Procedure: FIGS. 12A, 12B. Increased tear volume at D7 and D10 post ocular HSV-1 infection (POI) in GR73632 I.P treated eyes compared to the control treated group. Phenol Red thread (yellow color) images showing the thread wetness (red color) measured in mm.
Corneal HSV-1 infection. To carry out ocular HSV-1 infection, mice were first anesthetized by intra-peritoneal injection of Ketamine (33 mg/Kg bodyweight)+Xylazine (20 mg/Kg bodyweight) in 0.2 ml PBS. The cornea was scarified with trephine (Fine Science Tools, Foster City, Calif.) while twisting three to four times over the corneal surface. 1×10^4 plaque forming units (p.f.u) of HSV-1 virus were then topically applied with a pipette to the eye in 3 μL of 1×PBS followed by gentle massage of the eyelids.
(§1) Phenol red thread tear test. To measure the tear levels in the eyes of unmanipulated B6 and NK1R^−/− mice, pH indicator phenol red treated cotton threads were obtained from Zone-Quick (ZQ-1010, Showa Yakuhin Kako, Japan). The mice were restrained by holding the lose skin at the base of the neck without touching the facial skin or whiskers. The eyes were tested for tear level by placing the tip of the cotton thread on the bulbar conjunctiva of the lateral canthus for 30 seconds. A picture of the threads was taken and tear absorption was measured using a 10 cm scale.

NK1R [2] = molecular target: T1, NK1R; experiment: Tear film (basal tear volume) after systemic NK1R antagonist administration; format: in vivo; set-up: from tissue; host or cells: living C57Bl/6 mice (in vivo; basal tear volume); conditions: systemic treatment, C57Bl/6 mice
Procedure: FIG. 14. Alteration in Tear Film after NK1R antagonist administration.
as §1

T1 sequence (P30548 whole entry): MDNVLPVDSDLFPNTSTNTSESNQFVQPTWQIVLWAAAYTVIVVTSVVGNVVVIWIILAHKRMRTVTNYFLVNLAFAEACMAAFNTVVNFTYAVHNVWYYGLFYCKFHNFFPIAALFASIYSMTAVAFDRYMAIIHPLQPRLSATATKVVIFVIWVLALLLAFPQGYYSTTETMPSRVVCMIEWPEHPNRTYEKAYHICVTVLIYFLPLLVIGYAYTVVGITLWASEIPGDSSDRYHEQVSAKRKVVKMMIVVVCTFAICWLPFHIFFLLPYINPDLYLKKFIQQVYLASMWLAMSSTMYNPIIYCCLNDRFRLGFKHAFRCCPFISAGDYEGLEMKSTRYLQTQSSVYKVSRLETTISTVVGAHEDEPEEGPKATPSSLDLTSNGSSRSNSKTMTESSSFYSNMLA

## CSCC[C@H](NC(=O)[C@H](CC(C)C)N(C)C(=O)[C@@H]1CCCN1C(=O)[C@H](Cc1ccccc1)NC(=O)[C@H](Cc1ccccc1)NC(=O)CCCCN)C(N)=O [GR73632] (H-[Ava]FFP[NMeL]M-NH2)
NK1R [1]; D7 post ocular HSV-1 infection, p<0.05
  tear volume (phenol red thread wetness): Significant increase in tear volume
NK1R [1]; D10 post ocular HSV-1 infection, p<0.01
  tear volume (phenol red thread wetness): Significant increase in tear volume

## Spantide I
NK1R [2]
  volume of basal tears: reduces the volume of basal tears
